Measured values taken from patent US20040073277A1, “High fluence rate activation of photosensitizers for dermatological applications” (priority 2002, published 2004).
Where two headings read alike, the source gives them in different places.

What was measured:
[1] = test system: actinic keratoses; conditions: cited from earlier work
[2] = test system: hair follicles; conditions: photodynamic injury to hair follicles; cited from earlier work
[3] = test system: actinic keratoses; conditions: irradiation 4 hours after ALA, 580 to 740 nm lamp, 20 J/cm^2; cited from earlier work
[4] = test system: photoaged or wrinkled skin; conditions: following ALA-PDT; cited from earlier work
[5] = test system: acne; conditions: red light from a halogen lamp, 13 J/cm^2; cited from earlier work
[6] = test system: actinic keratoses; assay: ALA-PDT of lesional skin with pulsed dye laser below the purpura threshold; format: in vivo, human
Experimental: The present invention is generally directed to a method for activation of photodynamic sensitizers in dermatologic application.
The pulsed dye laser was operated below the purpura threshold of the skin at a fluence of about 3.0 to about 7.5 J/cm^2. […] Treatment was performed and successful with and without surface cooling. Surface cooling provided epidermal protection and additional pain reduction.

[7] = test system: acne; conditions: 20% ALA for 3 hours on the back; broadband lamp 550 to 700 nm, 150 J/cm^2; cited from earlier work
[8] = 20% ALA for 6 hours, 585 nm, 1.5 milliseconds, 18 J/cm^2
[9] = actinic keratoses, pulsed dye laser 595 nm below purpura threshold

In the case of `NCC(=O)CCC(=O)O` [ALA, 5-Aminolevulinic acid], the “efficacy of pulsed dye laser versus conventional lamp” value [1, 8] is listed as “similar”, the “pain with pulsed dye laser versus conventional lamp” value [1, 8] is listed as “significantly lower” and the “duration of purpura after treatment” value ([1]; pulsed dye laser only, 585 nm, 1.5 milliseconds, 18 J/cm^2) is listed as “up to two weeks”. For the same compound, the “duration of erythema and crusting after treatment” value ([1]; similar for pulsed dye laser and conventional lamp) was “up to two weeks”, the “excessive or unwanted hair” value [2] was “reduced” and the side effects [3] was “erythema and skin erosions occurred”. For the same compound, the “photoaged or wrinkled skin” value [4] was “improve”, the side effects [5] was “edematous erythema, epidermal exfoliation and irritation lasting several days, and pigmentation changes” and the therapeutic response [5] was “excellent therapeutic response”. For the same compound, the “time for treated skin to return to normal” value [5] was “one month”, the “treatment outcome of the lesion” value ([6]; ALA applied to lesional skin, pulsed dye laser 595 nm, pulse duration 3 to 40 milliseconds, fluence about 3.0 to about 7.5 J/cm^2) was “successfully treated” and the “pain, crusting and erosions of treated lesions” value [6, 9] was “reduction in pain and in crusting and erosions”. The purpura [6, 9] was “without purpura”, the “efficacy compared with conventional ALA-PDT” value ([6]; pulsed light source) was “efficacy equivalent to conventional ALA-PDT” and the “side effects compared with conventional ALA-PDT” value ([6]; pulsed light source) was “fewer and minimal side effects”. The acne response [7] was “improved” and the side effects [7] was “erythema, edema, exfoliation, and long-lasting hyperpigmentation”.
